Results from patent publication US20070244154A1, “Substituted Tricyclic Benzimidazoles” (Altana Pharma AG, priority 2004, published 2007).

Test system: pentagastrin-stimulated acid secretion of the perfused rat stomach
Experiment: Secretion-inhibiting action on the perfused rat stomach
Conditions: anesthetized female CD rat, dose 3 μmol/kg i.d. (intraduodenal)
Excerpt: Testing of the Secretion-Inhibiting Action on the Perfused Rat Stomach
In Table A which follows, the influence of the compounds of the formula 1 according to the invention on the pentagastrin-stimulated acid secretion of the perfused rat stomach after intraduodenal admnistation in vivo is shown.
The abdomen of anesthetized rats (CD rat, female, 200-250 g; 1.5 g/kg i.m. urethane) was opened after tracheotomy by a median upper abdominal incision and a PVC catheter was fixed transorally in the esophagus and another via the pylorus such that the ends of the tubes just projected into the gastric lumen. The catheter leading from the pylorus led outward into the right abdominal wall through a side opening.
After thorough rinsing (about 50-100 ml), warm (37° C.) physiological NaCl solution was continuously passed through the stomach (0.5 ml/min, pH 6.8-6.9; Braun-Unita I). The pH (pH meter 632, glass electrode EA 147; φ=5 mm, Metrohm) and, by titration with a freshly prepared 0.01N NaOH solution to pH 7 (Dosimat 665 Metrohm), the secreted HCl were determined in the effluent in each case collected at an internal of 15 minutes.
The gastric secretion was stimulated by continuous infusion of […] (=1.65 ml/h) of i.v. pentagastrin (left femoral vein) about 30 min after the end of the operation (i.e. after determination of 2 preliminary fractions). The substances to be tested were administered intraduodenally in a 2.5 ml/kg liquid volume 60 min after the start of the continuous pentagastrin infusion. The body temperature of the animals was kept at a constant 37.8-38° C. by infrared irradiation and heat pads (automatic, stepless control by means of a rectal temperature sensor).

With `CCCCO[C@H]1c2c(C(=O)N(C)C)cc3c(nc(C)n3C)c2N[C@H](c2ccccc2)[C@H]1O` [Example 13, (6S,7R,8R)-[6-n-Butyloxy-7-hydroxy-2,3-dimethyl-8-phenyl-6,7,8,9-tetrahydro-3H-imidazo[4,5-h]quinoline-5-yl]-carboxylic acid dimethylamide] as the molecule, how does the inhibition in vivo at 3 µmol/kg read?
The inhibition in vivo at 3 µmol/kg was over 15%.

For `CCCCO[C@@H]1c2c(C(=O)N(C)C)cc3c(nc(C)n3C)c2N[C@H](c2ccccc2)[C@H]1O` [Example 14, (6R,7R,8R)-[6-n-Butyloxy-7-hydroxy-2,3-dimethyl-8-phenyl-6,7,8,9-tetrahydro-3H-imidazo[4,5-h]quinoline-5-yl]-carboxylic acid dimethylamide], which inhibition in vivo at 3 µmol/kg is on record?
The inhibition in vivo at 3 µmol/kg was over 15%.

With `CCCCO[C@H]1c2c(C(=O)NC)cc3c(nc(C)n3C)c2N[C@H](c2ccccc2)[C@H]1O` [Example 3, (6S,7R,8R)-[6-n-butyloxy-6,7,8,9-tetrahydro-7-hydroxy-2,3-dimethyl-8-phenyl-3H-imidazo[4,5-h]quinoline-5-yl]-carboxylic acid methylamide] as the molecule, how does the inhibition in vivo at 3 µmol/kg read?
Its inhibition in vivo at 3 µmol/kg is over 15%.

For `Cc1nc2c3c(c(C(=O)N(C)C)cc2n1C)C[C@@H](O)[C@@H](c1ccccc1)N3` [Example 15, (7R,8R)-[7-Hydroxy-2,3-dimethyl-8-phenyl-6,7,8,9-tetrahydro-3H-imidazo[4,5-h]quinoline-5-yl]-carboxylic acid dimethylamide], which inhibition in vivo at 3 µmol/kg is on record?
The inhibition in vivo at 3 µmol/kg was over 15%.

With `CNC(=O)c1cc2c(nc(C)n2C)c2c1[C@H](O)[C@H](O)[C@@H](c1ccccc1)N2` [Example 1, (6S,7R,8R)-[6,7,8,9-Tetrahydro-6,7-dihydroxy-2,3-dimethyl-8-phenyl-3H-imidazo[4,5-h]quinoline-5-yl]-carboxylic acid methylamide] as the molecule, how does the inhibition in vivo at 3 µmol/kg read?
The inhibition in vivo at 3 µmol/kg was over 15%.

For `C#CCO[C@H]1c2c(C(=O)NC)cc3c(nc(C)n3C)c2N[C@H](c2ccccc2)[C@H]1O` [Example 7, (6S,7R,8R)-[6,7,8,9-Tetrahydro-7-hydroxy-2,3-dimethyl-8-phenyl-6-propargyloxy-3H-imidazo[4,5-h]quinoline-5-yl]-carboxylic acid methylamide], which inhibition in vivo at 3 µmol/kg is on record?
The inhibition in vivo at 3 µmol/kg was over 15%.

Which inhibition in vivo at 3 µmol/kg does the source give for `CNC(=O)c1cc2c(nc(C)n2C)c2c1[C@@H](O)[C@H](O)[C@@H](c1ccccc1)N2` [Example 2, (6R,7R,8R)-[6,7,8,9-Tetrahydro-6,7-dihydroxy-2,3-dimethyl-8-phenyl-3H-imidazo[4,5-h]quinoline-5-yl]-carboxylic acid methylamide] here?
The inhibition in vivo at 3 µmol/kg was over 15%.

With `CNC(=O)c1cc2c(nc(C)n2C)c2c1[C@@H](CC(F)F)[C@@H](O)[C@@H](c1ccccc1)N2` [Example 10, (6R,7R,8R)-[7-Hydroxy-2,3-dimethyl-8-phenyl-6-(2,2-difluoroethyl)-6,7,8,9-tetrahydro-3H-imidazo[4,5-h]quinoline-5-yl]-carboxylic acid methylamide] as the molecule, how does the inhibition in vivo at 3 µmol/kg read?
The inhibition in vivo at 3 µmol/kg was over 15%.

Which inhibition in vivo at 3 µmol/kg does the source give for `CNC(=O)c1cc2c(nc(C)n2C)c2c1C[C@@H](O)[C@@H](c1ccccc1)N2` [Example 11, (7R,8R)-[7-Hydroxy-2,3-dimethyl-8-phenyl-6,7,8,9-tetrahydro-3H-imidazo[4,5-h]quinoline-5-yl]-carboxylic acid methylamide] here?
The inhibition in vivo at 3 µmol/kg was over 15%.

With `CCCCO[C@@H]1c2c(C(=O)NC)cc3c(nc(C)n3C)c2N[C@H](c2ccccc2)[C@H]1O` [Example 4, (6R,7R,8R)-[6-n-butyloxy-6,7,8,9-tetrahydro-7-hydroxy-2,3-dimethyl-8-phenyl-3H-imidazo[4,5-h]quinoline-5-yl]-carboxylic acid methylamide] as the molecule, how does the inhibition in vivo at 3 µmol/kg read?
Its inhibition in vivo at 3 µmol/kg is over 15%.

With `Cc1nc2c3c(c(C(=O)N(C)C)cc2n1C)C(O)[C@H](O)[C@@H](c1ccccc1)N3` (stereo partly drawn) [Example 12, (7R,8R)-[6,7-Dihydroxy-2,3-dimethyl-8-phenyl-6,7,8,9-tetrahydro-3H-imidazo[4,5-h]quinoline-5-yl]carboxylic acid dimethylamide] as the molecule, how does the inhibition in vivo at 3 µmol/kg read?
Its inhibition in vivo at 3 µmol/kg is over 15%.

Test system: not given
Experiment: not given
Conditions: not given

With `CNC(=O)c1cc2c(nc(C)n2C)c2c1C[C@@H](O)[C@@H](c1ccccc1)N2` [Example 11, (7R,8R)-[7-Hydroxy-2,3-dimethyl-8-phenyl-6,7,8,9-tetrahydro-3H-imidazo[4,5-h]quinoline-5-yl]-carboxylic acid methylamide] as the molecule, how does the melting point read?
Its melting point is 265 to 268 °C.
